According to PMC10046037, “GABRG2 Variants Associated with Febrile Seizures” (Biomolecules, 2023):

Target: T1, α1β3γ2 GABAA receptor, γ2W162X variant (Homo sapiens, UniProt P14867+P28472)
T1 construct: expressed in transfected cells; host or cells: HEK293T
T1 sequence (P14867 28-456): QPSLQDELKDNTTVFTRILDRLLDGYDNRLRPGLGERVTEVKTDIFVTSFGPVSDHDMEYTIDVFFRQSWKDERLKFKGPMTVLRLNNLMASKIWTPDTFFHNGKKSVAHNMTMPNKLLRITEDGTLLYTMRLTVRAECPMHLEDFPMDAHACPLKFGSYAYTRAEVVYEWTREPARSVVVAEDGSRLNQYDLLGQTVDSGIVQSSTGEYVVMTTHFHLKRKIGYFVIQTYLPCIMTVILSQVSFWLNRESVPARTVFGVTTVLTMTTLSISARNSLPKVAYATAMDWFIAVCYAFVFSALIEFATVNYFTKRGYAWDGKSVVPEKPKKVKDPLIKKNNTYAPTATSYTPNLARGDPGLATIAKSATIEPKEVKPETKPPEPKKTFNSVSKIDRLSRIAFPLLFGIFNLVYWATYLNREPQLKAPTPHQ
T1 sequence (P28472 1-473 isoform P28472-2): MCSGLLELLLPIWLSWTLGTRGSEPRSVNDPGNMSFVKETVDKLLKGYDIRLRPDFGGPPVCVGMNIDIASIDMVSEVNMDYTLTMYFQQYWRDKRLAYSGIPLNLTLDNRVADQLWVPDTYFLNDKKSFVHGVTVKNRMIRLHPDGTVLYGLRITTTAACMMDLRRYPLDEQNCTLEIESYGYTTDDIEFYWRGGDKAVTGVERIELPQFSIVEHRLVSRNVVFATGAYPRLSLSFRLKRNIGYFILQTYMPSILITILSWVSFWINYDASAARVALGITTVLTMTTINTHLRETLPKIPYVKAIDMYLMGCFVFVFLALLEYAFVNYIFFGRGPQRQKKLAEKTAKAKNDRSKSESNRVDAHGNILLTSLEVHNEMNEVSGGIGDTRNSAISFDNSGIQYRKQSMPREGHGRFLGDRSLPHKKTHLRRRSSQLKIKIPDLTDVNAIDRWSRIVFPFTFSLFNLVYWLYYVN
Assay: Automated patch clamp of GABA-elicited currents (SyncroPatch 384PE), γ2W162X
Assay type: cell-based
Details: mean
Method: The coding sequences of human α1 (GABRA1, NM_000806), β3 (GABRB3, NM_021912), and γ2 (GABRG2, NM_198904.2) GABAAR subunits were subcloned into the pcDNA3.1 expression vectors (Invitrogen, Waltham, MA, USA).
HEK293T cells (ATCC, CRL-11268) were cultured at 37 °C in a humidified 5% CO2 incubator and maintained in Dulbecco’s modified Eagle’s medium (Invitrogen) supplemented with 10% fetal bovine serum (Life Technologies, Carlsbad, CA, USA), and 100 IU/mL of penicillin/streptomycin (Life Technologies). For the expression experiments, 4 × 10^5 cells were transfected using polyethylenimine (PEI) reagent (40 kD, Polysciences, Warrington, PA, USA) at a DNA: to transfection reagent ratio of 1:2.5 and harvested 36 h after transfection. To express WT and variant α1β3γ2 receptors, a total of 3 µg of α1, β3, and γ2 (WT or mutant) subunit cDNAs were transfected at a ratio of 1:1:1 into 60 mm culture dishes. For the mock-transfected condition, an empty pcDNA3.1 vector was added for a final cDNA transfection amount of 3 μg. For the electrophysiology experiments, 2.5 × 10^5 cells were plated in 100 mm culture dishes and transfected after 24 h with 3 μg of cDNA of each α1, β3, γ2 (wild-type or mutant) subunit, using X-tremeGENE HP DNA transfection Reagent (Roche Diagnostics, Basel, Switzerland), following the manufacturer’s protocol. Recordings were obtained forty-eight hours after transfection.
Whole-cell patch clamp recordings were conducted according to the manufacturer’s standard procedure for the SyncroPatch 384 [31]. Whole-cell voltage-clamp recordings were performed at room temperature on HEK293T cells 48 h after transfection with GABAAR subunits, using the SyncroPatch 384PE (Nanion Technologies, Munich, Germany). Cells, at a concentration of 400,000 cells/mL, were harvested in suspension in external solution containing 140 mM of NaCl, 2 mM of CaCl2, 4 mM of KCl, 1 mM of MgCl2, 5 mM of glucose, and 10 mM of HEPES (pH 7.4 with NaOH, 298 mOsm). The cells were loaded in a multi-hole (4 holes per well) 384-well Nanion patch clamp (NPC) chip with a thick borosilicate glass bottom and an average resistance pore size of […]. Built-in electrophysiological protocols were used, and the data were digitized using PatchControl 384 (Nanion Technologies) application. Using PatchControl 384, electrophysiological parameters, such as seal resistance, capacitance, and series resistance, were determined for each well after the application of a test pulse, and subsequently monitored over time. […] The currents were normalized to the maximal response of each well, and the concentration–response curves were calculated from single-point additions. The EC50 values for each variant or wild-type receptor were calculated across multiple wells for each experimental condition.

Deactivation (1 mM GABA for 5 ms, HEK293T, -80 mV): 533.8 ms
IMAX (maximal GABA-evoked peak current) (1 mM GABA for 5 ms, HEK293T): 0.48 nA
IMAX variant/IMAX WT (1 mM GABA): 24.07%
Rise Time (10–90% rise time, 1 mM GABA for 5 ms, HEK293T): 23.51 ms
SMILES: NCCCC(=O)O [GABA, γ-aminobutyric acid]
